The series in a line: Solubility of pure CoQ10 in ethanol. The series is classed as physicochemical. Here is the method: The chromatography product from Example 8 is dissolved in 200 proof ethanol to create a 9 wt-% solution at 55° C. This should create a slightly sub-saturated solution. Table VI below provides solubility data for pure CoQ10 in ethanol.

In the case of `COC1=C(OC)C(=O)C(C/C=C(\C)CC/C=C(\C)CC/C=C(\C)CC/C=C(\C)CC/C=C(\C)CC/C=C(\C)CC/C=C(\C)CC/C=C(\C)CC/C=C(\C)CCC=C(C)C)=C(C)C1=O` [CoQ10, 2,3 dimethoxy-5 methyl-6 decaprenyl benzoquinone], the Solubility was 0.38 g/100 g Solvent (30 °C), 8.99 g/100 g Solvent (50 °C) and 11.0 g/100 g Solvent (60 °C).

(Values after US20070025976A1, “Process for the purification of coenzyme Q10” (Cargill, Inc., priority 2005, published 2007).)
